# Laboratory results taken from patent US7358359B2, “Antibacterial agents” (University of Washington, priority 2003, dated 2008).
# Like-named read-outs stand apart in the source and are kept apart here.
# Assays:
# Enterobacter cloacae = assay: MIC vs enteric organisms: Enterobacter cloacae; assay type: cell-based; settings: E. clo., MIC key class
# Description: (§1) Bacterial isolates were cultivated from −70° C. frozen stocks by two consecutive overnight passages at 35° C. in ambient air on 5% blood agar (Remel, Lenexa, Kans.). Clinical isolates tested were from a collection composed of isolates collected during clinical trials and recent clinical isolates obtained from various geographically diverse hospitals in the US. Quality control and primary panel strains were from the American Type Culture Collection (ATCC; Rockville, Md.), with the exception of P. aeruginosa PAO200, a strain with a deletion of the mexABoprM genes that was received from Dr. H. Schweizer.
# (§2) Minimum Inhibitory Concentrations (MICs) were determined by the broth microdilution method in accordance with the National Committee for Clinical Laboratory Standards (NCCLS) guidelines. In brief, organism suspensions were are adjusted to a 0.5 McFarland standard to yield a final inoculum between 3×10^5 and 7×10^5 colony-forming units (CFU)/mL. Drug dilutions and inocula were made in sterile, cation adjusted Mueller-Hinton Broth (Remel). An inoculum volume of 100 μl was added to wells containing 100 μl of broth with 2-fold serial dilutions of drug. All inoculated microdilution trays were incubated in ambient air at 35° C. for 18-24 hours. Following incubation, the lowest concentration of the drug that prevented visible growth was recorded as the MIC.
# Klebsiella oxytoca = assay: MIC vs enteric organisms: Klebsiella oxytoca; assay type: cell-based; settings: K. oxy., MIC key class
# Description: as §1, §2
# Burkholderia cepacia = assay: MIC vs non-fermenting organisms: Burkholderia cepacia; assay type: cell-based; settings: Burkholderia cepacia, B. cepacia; MIC key class; read-out: MIC
# Description: as §1, §2
# [1] = tested on: Pseudomonas aeruginosa cystic fibrosis isolate 3232; assay: MIC vs cystic fibrosis isolate of P. aeruginosa 3232 (Ceftaz. R); assay type: cell-based; settings: strain 3232, Ceftaz. R, LpxC inhibitors, MIC key class
# [2] = tested on: Pseudomonas aeruginosa cystic fibrosis isolate 3198; assay: MIC vs cystic fibrosis isolate of P. aeruginosa 3198 (sensitive to most antibacterials); assay type: cell-based; settings: strain 3198, Sensitive, LpxC inhibitors, MIC key class
# Description: as §1, §2
# Escherichia coli = assay: MIC vs enteric organisms: Escherichia coli clinical isolates; assay type: cell-based; settings: Escherichia coli, MIC key class, read-out: MIC
# Description: as §1, §2
# P. aeruginosa 27853 = assay: MIC broth microdilution, standard panel: P. aeruginosa 27853; assay type: cell-based; settings: Pseudomonas aeruginosa, standard panel of organisms
# Description: as §1, with “Schweizer. […] Strain Z61 (ATCC 35151) is also hypersusceptible to antibacterials. It is thought that the hypersusceptibility of this strain is the result of increased permeability of its outer membrane (Angus B L et al, Antimicrobial Agents and Chemotherapy 1982 21,299-309: Outer membrane permeability in Pseudomonas aeruginosa: Comparison of a wild-type with an antibacterial-supersusceptible mutant).” for “Schweizer.”
# as §2, with “MIC. Performance of the assay was monitored by the use of laboratory quality-control strains against tobramycin, that has a defined MIC spectrum, in accordance with NCCLS guidelines.” for “MIC.”
# [3] = tested on: Stenotrophomonas maltophilia; assay: MIC vs non-fermenting organisms: Stenotrophomonas maltophilia; assay type: cell-based; settings: Stenotrophomonas maltophilia, S. malt.; MIC key class; read-out: MIC
# Description: as §1, §2
# [4] = tested on: Pseudomonas aeruginosa cystic fibrosis isolate 1145; assay: microbe, parasite or virus in culture; assay type: cell-based; settings: strain 1145, MDR, LpxC inhibitors, MIC key class, read-out: MIC
# Description: as §1, §2
# [5] = tested on: Pseudomonas aeruginosa cystic fibrosis isolate 3206; assay: microbe, parasite or virus in culture; assay type: cell-based; settings: strain 3206, MDR, LpxC inhibitors, MIC key class, read-out: MIC
# Description: as §1, §2
# Klebsiella pneumoniae = assay: MIC vs enteric organisms: Klebsiella pneumoniae; assay type: cell-based; settings: K. pneu., MIC key class
# Description: as §1, §2
# [6] = tested on: Acinetobacter calcoaceticus; assay: MIC vs non-fermenting organisms: Acinetobacter calcoaceticus; assay type: cell-based; settings: Acinet. calc., MIC key class
# Description: as §1, §2
# [7] = tested on: non-CF clinical isolates of P. aeruginosa; assay: MIC vs non-CF clinical isolates of P. aeruginosa; assay type: cell-based; settings: Pseudomonas aeruginosa, MIC key class
# Description: as §1, with “Schweizer. […] Strain Z61 (ATCC 35151) is also hypersusceptible to antibacterials. It is thought that the hypersusceptibility of this strain is the result of increased permeability of its outer membrane (Angus B L et al, Antimicrobial Agents and Chemotherapy 1982 21,299-309: Outer membrane permeability in Pseudomonas aeruginosa: Comparison of a wild-type with an antibacterial-supersusceptible mutant).” for “Schweizer.”
# as §2, with “MIC. Performance of the assay was monitored by the use of laboratory quality-control strains against tobramycin, that has a defined MIC spectrum, in accordance with NCCLS guidelines.” for “MIC.”
# [8] = tested on: Pseudomonas aeruginosa cystic fibrosis isolate 2196; assay: MIC vs cystic fibrosis isolate of P. aeruginosa 2196 (resistant to ciprofloxacin); assay type: cell-based; settings: strain 2196, Cipro R, LpxC inhibitors, MIC key class
# Description: as §1, §2
# S. aureus 29213 = assay: MIC broth microdilution, standard panel: S. aureus 29213; assay type: cell-based; settings: Staphylococcus aureus, standard panel of organisms
# Description: as §1, with “Schweizer. […] Strain Z61 (ATCC 35151) is also hypersusceptible to antibacterials. It is thought that the hypersusceptibility of this strain is the result of increased permeability of its outer membrane (Angus B L et al, Antimicrobial Agents and Chemotherapy 1982 21,299-309: Outer membrane permeability in Pseudomonas aeruginosa: Comparison of a wild-type with an antibacterial-supersusceptible mutant).” for “Schweizer.”
# as §2, with “MIC. Performance of the assay was monitored by the use of laboratory quality-control strains against tobramycin, that has a defined MIC spectrum, in accordance with NCCLS guidelines.” for “MIC.”
# Proteus mirabilis = assay: MIC vs enteric organisms: Proteus mirabilis; assay type: cell-based; settings: P. mir., MIC key class
# Description: as §1, §2
# [9] = tested on: Pseudomonas aeruginosa cystic fibrosis isolate 3236; assay: MIC vs cystic fibrosis isolate of P. aeruginosa 3236 (sensitive to most antibacterials); assay type: cell-based; settings: strain 3236, Sensitive, LpxC inhibitors, MIC key class
# Description: as §1, §2
# [10] = tested on: P. aeruginosa PAO200 mexAB; assay: MIC broth microdilution, standard panel: P. aeruginosa PAO200 mexAB; assay type: cell-based; settings: Pseudomonas aeruginosa, PAO200MEXAB, read-out: MIC P. aeruginosa PAO200 mexAB
# Description: as §1, with “Schweizer. […] Strain Z61 (ATCC 35151) is also hypersusceptible to antibacterials. It is thought that the hypersusceptibility of this strain is the result of increased permeability of its outer membrane (Angus B L et al, Antimicrobial Agents and Chemotherapy 1982 21,299-309: Outer membrane permeability in Pseudomonas aeruginosa: Comparison of a wild-type with an antibacterial-supersusceptible mutant).” for “Schweizer.”
# as §2, with “MIC. Performance of the assay was monitored by the use of laboratory quality-control strains against tobramycin, that has a defined MIC spectrum, in accordance with NCCLS guidelines.” for “MIC.”
# [11] = tested on: Pseudomonas aeruginosa cystic fibrosis isolate 3224; assay: MIC vs cystic fibrosis isolate of P. aeruginosa 3224; assay type: cell-based; settings: strain 3224, Tobra R, LpxC inhibitors, MIC key class
# Description: as §1, §2
# E. coli 25922 = assay: MIC broth microdilution, standard panel: E. coli 25922; assay type: cell-based; settings: Escherichia coli, standard panel of organisms
# Description: as §1, with “Schweizer. […] Strain Z61 (ATCC 35151) is also hypersusceptible to antibacterials. It is thought that the hypersusceptibility of this strain is the result of increased permeability of its outer membrane (Angus B L et al, Antimicrobial Agents and Chemotherapy 1982 21,299-309: Outer membrane permeability in Pseudomonas aeruginosa: Comparison of a wild-type with an antibacterial-supersusceptible mutant).” for “Schweizer.”
# as §2, with “MIC. Performance of the assay was monitored by the use of laboratory quality-control strains against tobramycin, that has a defined MIC spectrum, in accordance with NCCLS guidelines.” for “MIC.”
# Serratia marcescens = assay: MIC vs enteric organisms: Serratia marcescens; assay type: cell-based; settings: S. marc., MIC key class
# Description: as §1, §2
# Enterobacter aerogenes = assay: MIC vs enteric organisms: Enterobacter aerogenes; assay type: cell-based; settings: Klebsiella aerogenes; E. aer.; MIC key class
# Description: as §1, §2
# Alcaligenes xylosoxidans = assay: MIC vs non-fermenting organisms: Alcaligenes xylosoxidans; assay type: cell-based; settings: Achromobacter xylosoxidans; Alcal. xyl; MIC key class
# Description: as §1, §2
# [12] = tested on: Pseudomonas aeruginosa cystic fibrosis isolate 3317; assay: MIC vs cystic fibrosis isolate of P. aeruginosa 3317 (resistant to aztreonam); assay type: cell-based; settings: strain 3317, Aztr. R, LpxC inhibitors, MIC key class
# Description: as §1, §2
# P. aeruginosa LpxC = biological target: T1, P. aeruginosa LpxC (Pseudomonas aeruginosa, UniProt P47205); assay: P. aeruginosa LpxC Inhibition Assay; assay type: biochemical; settings: 2 nM P. aeruginosa LpxC, 90 min, room temperature; read-out: IC50 (nM), Enzyme inhibitory activity
# T1 sequence (P47205 1-303): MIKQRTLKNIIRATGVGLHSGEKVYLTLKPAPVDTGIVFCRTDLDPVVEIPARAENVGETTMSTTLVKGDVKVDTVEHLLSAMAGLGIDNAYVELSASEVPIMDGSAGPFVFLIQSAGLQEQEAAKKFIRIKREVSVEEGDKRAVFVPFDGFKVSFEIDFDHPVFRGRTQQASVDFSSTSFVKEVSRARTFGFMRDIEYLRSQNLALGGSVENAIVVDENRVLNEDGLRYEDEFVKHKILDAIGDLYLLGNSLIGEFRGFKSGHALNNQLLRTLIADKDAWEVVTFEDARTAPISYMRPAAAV
# Description: The assay followed the general method of Hyland et al (Journal of Bacteriology 1997 179, 2029-2037: Cloning, expression and purification of UDP-3-O-acyl-GlcNAc deacetylase from Pseudomonas aeruginosa: a metalloamidase of the lipid A biosynthesis pathway) and the radiolabeling procedure is according to Kline et al. supra. Briefly, samples were incubated with 2 nM P. aeruginosa LpxC and 150 nM [3H-Ac]-UDP-3-OR-3-hydroxydecanoyl)-GlcNAc in a total volume of 50 uL for 90 min at room temperature. Reactions were carried out in 96-well polypropylene plates in 50 mM sodium phosphate buffer, pH 7.5, containing 1 mg/mL BSA. Reactions were stopped by the addition of 180 uL of a 3% suspension of activated charcoal powder in 100 mM sodium acetate, pH 7.5. Supernatants were clarified by centrifugation. A portion of the clarified supernatant, containing the enzymatically released [3H]-acetate, was transferred to opaque white 96-well plates containing scintillation fluid. The radioactivity was measured in a Perkin-Elmer/Wallac Trilux Microbeta counter.
smiles,measurement,setting,value
"O=C(NO)[C@H]1[C@H](O)CCN1C(=O)c1ccc(OC(F)(F)F)cc1 [Example 3, (2R,3R)-3-hydroxy-1-{[4-(trifluoromethoxy)phenyl]carbonyl}pyrrolidine-2-carbohydroxamic acid]",melting point,,64 to 65 °C
"NC[C@H](NC(=O)c1ccc(C#Cc2ccccc2)cc1)C(=O)NO [Example 366, N-[(1S)-1-(aminomethyl)-2-(hydroxyamino)-2-oxoethyl]-4-(phenylethynyl)benzamide]",MIC,Enterobacter cloacae,< 6.25 µg/mL
same,MIC,Klebsiella oxytoca,6.25 to 50 µg/mL
same,MIC,Burkholderia cepacia,6.25 to 50 µg/mL
same,MIC,[1],< 6.25 µg/mL
same,MIC,[2],< 6.25 µg/mL
same,MIC,Escherichia coli; E. coli 1619,< 6.25 µg/mL
same,MIC,Escherichia coli; E. coli 2788,< 6.25 µg/mL
same,MIC,P. aeruginosa 27853,< 6.25 µg/mL
same,MIC,[3],6.25 to 50 µg/mL
same,MIC,[4],< 6.25 µg/mL
same,MIC,[5],< 6.25 µg/mL
same,MIC,Klebsiella pneumoniae,6.25 to 50 µg/mL
same,MIC,[6],> 50 µg/mL
same,MIC,[7]; P. aer 12307,< 6.25 µg/mL
same,MIC,[7]; P. aer 27853,< 6.25 µg/mL
same,MIC,[7]; P. aer psa-6b,6.25 to 50 µg/mL
same,MIC,"[7]; PAO1, P. aer. PAO1",< 6.25 µg/mL
same,MIC,[8],< 6.25 µg/mL
same,MIC,S. aureus 29213,> 50 µg/mL
same,MIC,Proteus mirabilis,< 6.25 µg/mL
same,MIC,[9],< 6.25 µg/mL
same,MIC,[10],< 6.25 µg/mL
same,MIC,[11],< 6.25 µg/mL
same,MIC,E. coli 25922,< 6.25 µg/mL
same,MIC,Serratia marcescens,< 6.25 µg/mL
same,MIC,Enterobacter aerogenes,> 50 µg/mL
same,MIC,Alcaligenes xylosoxidans,< 6.25 µg/mL
same,MIC,[12],< 6.25 µg/mL
"NC[C@H](NC(=O)c1ccc(C#Cc2ccc(NC(=O)CNc3ccccc3)cc2)cc1)C(=O)NO [Example 572, N-{(1S)-1-(aminomethyl)-2-(hydroxyamino)-2-oxoethyl]-4-[(4-{[(phenylamino)acetyl]amino}phenyl)ethynyl]benzamide]",MIC,P. aeruginosa 27853,< 6.25 µg/mL
same,MIC,S. aureus 29213,> 50 µg/mL
same,MIC,[10],< 6.25 µg/mL
same,MIC,E. coli 25922,< 6.25 µg/mL
same,IC50,P. aeruginosa LpxC,< 100 nM
"C[C@@H](O)[C@H](NC(=O)c1ccc(C#Cc2ccc(NC(=O)CNc3cnccn3)cc2)cc1)C(=O)NO [Example 860, N-{(1S,2R)-2-hydroxy-1-[(hydroxyamino)carbonyl]propyl}-4-[(4-{[(pyrazin-2-ylamino)acetyl]amino}phenyl)ethynyl]benzamide]",MIC,P. aeruginosa 27853,< 6.25 µg/mL
same,MIC,S. aureus 29213,> 50 µg/mL
same,MIC,[10],< 6.25 µg/mL
same,MIC,E. coli 25922,< 6.25 µg/mL
same,IC50,P. aeruginosa LpxC,< 100 nM
